This note sets out measurements from patent US20240199587A1, “HETEROCYCLIC COMPOUNDS” (Hoffmann-La Roche Inc., priority 2021, published 2024).

For the experiment, the target named is T1, MAGL (Homo sapiens, UniProt Q99685).
T1 sequence (Q99685 1-303): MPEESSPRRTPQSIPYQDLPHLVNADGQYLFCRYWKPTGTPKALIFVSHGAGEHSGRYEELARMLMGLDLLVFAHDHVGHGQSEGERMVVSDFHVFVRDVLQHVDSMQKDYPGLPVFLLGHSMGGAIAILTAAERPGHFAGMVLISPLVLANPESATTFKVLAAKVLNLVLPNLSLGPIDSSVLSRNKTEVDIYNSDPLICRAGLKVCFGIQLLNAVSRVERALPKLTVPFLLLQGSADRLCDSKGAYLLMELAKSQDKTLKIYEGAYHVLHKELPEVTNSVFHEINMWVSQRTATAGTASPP
Kind of experiment: 2-AG assay (MAGL inhibitory activity, hydrolysis of 2-arachidonoylglycerol to arachidonic acid followed by mass spectrometry). In kind it is biochemical. As to conditions: 8 μM 2-arachidonoylglycerol, 15 min pre-incubation, 30 min incubation at RT, RapidFire MS readout. The method, boiled down: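 Arachidonic acid released from 8 μM 2-arachidonoylglycerol was quantified by online SPE triple-quadrupole MS (negative ESI, 303.1→259.1), normalised to d8-arachidonic acid internal standard. Reaction ran 30 min at RT after 15 min RT compound pre-incubation with […] MAGL in TRIS/EDTA/Tween-20 buffer, 2.5% DMSO.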

The substance “N-[2-[6-[3-(1- hydroxycyclopropyl)- 1,2,4-triazol-1-yl]-2- azaspiro[3.3]heptane-2- carbonyl]-2- azaspiro[3.3]heptan-6- yl]-3- (trifluoromethyl) benzenesulfonamide [Example 401]” registered an IC50 of 9.45 nM. That is a single-digit nanomolar value. For “[6-[3-(1- hydroxycyclopropyl)- 1,2,4-triazol-1-yl]-2- azaspiro[3.3]heptan-2- yl]-[6-[4- (trifluoromethyl)-2- pyridyl]methyl]-2- azaspiro[3.3]heptan-2- yl]methanone [Example 400]” the value was 4.65 nM.

Broadly, the IC50 is the concentration needed to halve the response being measured. Read a high IC50 as weaker potency.
